Measurements: PubChem BioAssay (NCI)
Values joined by “and” are separate entries in the source; they are usually repeats but may differ in a detail not shown here. Identical values can stand only once.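 Values below derive from 48-hour exposures of cells grown in 96-well plates, with endpoints linearly interpolated between the two concentrations bracketing the appropriate inhibition level. GI50 = concentration required for 50% inhibition of growth. Definition used: TGI = concentration required for complete inhibition of growth.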

How the values were obtained:
Experiment in all cases: DTP human tumour cell line panel, 48 h
UACC-257 melanoma = test system: UACC-257 melanoma
HCT-116 colon = test system: HCT-116 colon
HOP-62 NSCLC = test system: HOP-62 NSCLC
MDA-N = test system: MDA-N
K-562 leukemia = test system: K-562 leukemia
MOLT-4 leukemia = test system: MOLT-4 leukemia
IGROV1 ovarian = test system: IGROV1 ovarian
SF-295 CNS = test system: SF-295 CNS
SNB-78 CNS = test system: SNB-78 CNS
LXFL 529 NSCLC = test system: LXFL 529 NSCLC
RXF-631 renal = test system: RXF-631 renal
HOP-18 NSCLC = test system: HOP-18 NSCLC
M19-MEL melanoma = test system: M19-MEL melanoma

| SMILES | TGI (UACC-257 melanoma) | TGI (HCT-116 colon) | TGI (HOP-62 NSCLC) | TGI (MDA-N) | TGI (K-562 leukemia) | TGI (MOLT-4 leukemia) | TGI (IGROV1 ovarian) | TGI (SF-295 CNS) | GI50 (HCT-116 colon) | GI50 (IGROV1 ovarian) | GI50 (HOP-62 NSCLC) | GI50 (K-562 leukemia) | GI50 (SF-295 CNS) | GI50 (MOLT-4 leukemia) | GI50 (UACC-257 melanoma) | TGI (SNB-78 CNS) | TGI (LXFL 529 NSCLC) | TGI (RXF-631 renal) | TGI (HOP-18 NSCLC) | TGI (M19-MEL melanoma) |
| --- | --- | --- | --- | --- | --- | --- | --- | --- | --- | --- | --- | --- | --- | --- | --- | --- | --- | --- | --- | --- |
| COC(=O)C1=C(O)C(C(=O)OC)[C@@]2(O)[C@@H](C(=O)OC)[C@H](C)C[C@@H]1[C@@H]2C(=O)OC (stereo not given in full) | > 100 µM | > 100 µM | > 100 µM | 31.4 µM | > 100 µM | > 100 µM | – | – | – | – | – | – | – | – | – | – | – | – | – | – |
| O=c1c(-c2ccccc2)c(SCCCN2CCCCC2)n(-c2ccccc2)c(=S)n1-c1ccccc1 | 31.9 µM | – | 32.7 µM | – | 34.1 µM | 47 µM | 35.7 µM | 32.1 µM | – | – | – | – | – | – | – | – | – | – | – | – |
| O=c1[nH]c2ccccc2c2oc3ccccc3c12 | > 100 µM | – | > 100 µM | > 100 µM | > 100 µM | > 100 µM | > 100 µM | > 100 µM | – | – | – | – | – | – | – | – | – | – | – | – |
| O=[N+]([O-])c1ccc(N/N=C\c2cc(Br)ccc2O)nc1 | – | 2.44 µM | 10.3 µM | – | > 100 µM | 23.9 µM | 3.44 µM | 3.11 µM | 0.451 µM | 1.05 µM | 1.59 µM | 0.612 µM | 1.05 µM | 0.347 µM | – | – | – | – | – | – |
| O=c1c2ccccc2nc2n1CCc1c-2[nH]c2ccccc12 | – | 31.3 µM | – | 28.5 µM | > 100 µM | > 100 µM | 60.6 µM | 27 µM | – | – | – | – | – | – | – | – | – | – | – | – |
| NCCCCNOCCCN | > 100 µM | > 100 µM | – | > 100 µM | > 100 µM | > 100 µM | > 100 µM | > 100 µM | – | – | – | – | – | – | – | – | – | – | – | – |
| COC(=O)C(C)NP(=O)(OCc1cccc(Cn2cnc3c(N)ncnc32)c1)Oc1ccccc1 (stereo not given) | > 100 µM | > 100 µM | > 100 µM | – | > 100 µM | > 100 µM | > 100 µM | > 100 µM | 47 µM | > 100 µM | > 100 µM | > 100 µM | > 100 µM | 38.3 µM | > 100 µM | – | – | – | – | – |
| CCOC(=O)c1c(Cl)c2c(n1Cc1ccccc1)-c1oncc1CCC2 | – | > 100 µM | > 100 µM | – | > 100 µM | > 100 µM | > 100 µM | > 100 µM | 4.02 µM | 4.39 µM | 4.35 µM | 3.68 µM | > 100 µM | 3.58 µM | – | – | – | – | – | – |
| C/C=C(/CCC1NCCc2c1[nH]c1ccccc21)[Si](C)(C)C (stereo not given) | – | – | > 100 µM and 26.7 µM | – | > 100 µM | – | > 100 µM and 21.1 µM | > 100 µM and 19.2 µM | – | – | – | – | – | – | – | > 100 µM and 27 µM | 3.25 µM | > 100 µM and 22.9 µM | 24.2 µM | > 100 µM and 10.1 µM |
| CC(C)(C)OC(=O)CC(NC(=O)OCc1ccccc1)NC(=O)OC(C)(C)C (stereo not given) | – | – | – | – | – | 55.6 µg/mL | – | – | 52.1 µg/mL | – | – | 38.2 µg/mL | 46.2 µg/mL | 23.5 µg/mL | 35.8 µg/mL | – | – | – | – | – |
